Where two headings read alike, the source gives them in different places. Marks after values point to notes of the source that are not given here.
Experiments:
[1] = system: white blood cells in mice bearing Lewis lung tumor
Description: The vigorously growing tumor cells were taken and prepared into cell suspension with a concentration of about 5-10×10^6/ml by homogenization under sterile condition.
At the beginning of the experiment, 10 mice were randomly sampled for blood collection by posterior orbital venous plexus puncture, and an automatic blood cell analyzer (HEMAVET-950) was used to conduct the routine blood test. Then the blood was collected for the routine blood test by the same method on the 8th and 12th days after the last administration of cyclophosphamide.

[2] = system: white blood cells in tumor patients; settings: for Effect of increasing WBC (C1/Czs): all 10 subjects, 15-45 mg total daily dose, Day 0 = 100%; for average extent of increasing white blood cells: average of subjects
Method: Blood was collected on the day before the administration, and the routine blood test was conducted to determine the number of white blood cells (Czs) before the subjects were treated with the medicine of the present invention.
10 subjects took ACP at different administrated frequency and dose every day (see Table 2). Blood was collected from 10 subjects at Day 8, 15, 22, and 28 for routine blood test.

[3] = subject GBYI, Day 0 count 4.3, once a day, total daily dose 15 mg
[4] = subject LXJV, Day 0 count 2.7, three times a day, total daily dose 30 mg
[5] = chemotherapy control group, CTX 150/100 mg/kg ip, reference = 100%

C#C[C@@]1(OC(C)=O)C[C@@H]2CC[C@@H]3[C@H](CC[C@@]4(C)[C@H]3CC[C@]4(C#C)OC(C)=O)[C@@]2(C)C1 [ACP1, 2α,17α-diethynyl-A-decarbonized-5α-androstane-2β,17β-dihydroxyl diacetate compound]
Day 8 (10^3 WBC/μl) ([1]; mouse, in vivo, 5 mg/kg): 4.21 ± 1.22 10^3 WBC/μl | Day 8 (%) ([1]; mouse, in vivo, 5 mg/kg): 1027%* | Day 12 (10^3 WBC/μl) ([1]; mouse, in vivo, 5 mg/kg): 4.32 ± 1.29 10^3 WBC/μl | Day 12 (%) ([1]; mouse, in vivo, 5 mg/kg): 292%* | Effect of increasing WBC (C1/Czs) ([2]; Day 8): 146% | extent of increasing white blood cells (Cl/Czs-100%) ([2]; Day 8, compared with before treatment): about 50% | Effect of increasing WBC (C1/Czs) ([2]; Day 15): 180% | average extent of increasing white blood cells ([2]; Day 15): about 80% | maximum extent of increasing white blood cells ([2]; Day 15, maximum among subjects): about 178% | extent of increasing white blood cells ([2]; Day 22): about 63% | Effect of increasing WBC (C1/Czs) ([2]; Day 22): 163% | Effect of increasing WBC (C1/Czs) ([2]; Day 28): 149% | average extent of increasing white blood cells ([2]; Day 28): about 50% | WBC count during administration, Day 8 [2, 3]: 5.8 10^9/L | WBC count during administration, Day 15 [2, 3]: 6.9 10^9/L | WBC count during administration, Day 22 [2, 3]: 6.3 10^9/L | WBC count during administration, Day 28 [2, 3]: 7.0 10^9/L | WBC count during administration, Day 8 [2, 4]: 5.9 10^9/L | WBC count during administration, Day 15 [2, 4]: 7.5 10^9/L | WBC count during administration, Day 22 [2, 4]: 6.0 10^9/L | WBC count during administration, Day 28 [2, 4]: 6.1 10^9/L

O=P1(N(CCCl)CCCl)NCCCO1 (centres unmarked) [CTX, cyclophosphamide]
effect on white blood cells of peripheral blood in mice ([1]; chemotherapy control group): caused a decrease of white blood cells of peripheral blood in mice | Day 8 (10^3 WBC/μl) ([1]; chemotherapy control group, CTX 150/100 mg/kg ip, 8th day after last CTX): 0.41 ± 0.07 10^3 WBC/μl | Day 12 (10^3 WBC/μl) ([1]; chemotherapy control group, CTX 150/100 mg/kg ip, 12th day after last CTX): 1.48 ± 0.37 10^3 WBC/μl | Day 8 (%) [1, 5]: 100% | Day 12 (%) [1, 5]: 100%
